Literature values in patent US20220125792A1, “USE OF COMPOSITION CONTAINING CDK4/6 INHIBITOR IN COMBINATION WITH ANASTROZOLE IN PREPARATION OF MEDICAMENT FOR TREATING TUMOR DISEASES” (Jiangsu Hengrui Medicine Co., Ltd., priority 2019, published 2022).

Columns and labels:
[1] = system: systemic aromatization and plasma estrogen level; details: letrozole 2.5 mg once a day, postmenopausal women with metastatic breast cancer

**Q.** For N#Cc1ccc(C(c2ccc(C#N)cc2)n2cncn2)cc1 [letrozole], which “inhibition of systemic aromatization and plasma estrogen level, compared with anastrozole (1 mg daily)” value [1] is on record?
**A.** more effective systemic aromatization and plasma estrogen level inhibitor than anastrozole

**Q.** And the “total remission rate (ORR), letrozole versus anastrozole” value (advanced breast cancer; European Journal of Cancer 39 (2003) 2318-2327)?
**A.** significantly superior to anastrozole

**Q.** What about the “response of advanced breast cancer, second-line hormonal therapy, letrozole versus anastrozole” value (advanced breast cancer; open randomized trial) of the same compound?
**A.** responded more strongly to letrozole than to anastrozole
